In US11339120B2, “Phenyl derivatives as cannabinoid receptor 2 agonists” (priority 2015, dated 2022):
Read-outs that look alike come from different tables or passages of the source.

Tests used:
[1] = target: T1, human CB2 receptors (Homo sapiens, UniProt P34972); assay: functional cAMP assay, CHO cells expressing human CB2; assay type: cell-based
T1 construct: expressed in transfected cells; host or cells: CHO cells
Procedure: (§1) CHO cells expressing human CB1 or CB2 receptors are seeded 17-24 hours prior to the experiment 50.000 cells per well in a black 96 well plate with flat clear bottom (Corning Costar #3904) in DMEM (Invitrogen No. 31331), 1×HT supplement, with 10% fetal calf serum and incubated at 5% CO2 and 37° C. in a humidified incubator. The growth medium was exchanged with Krebs Ringer Bicarbonate buffer with 1 mM IBMX and incubated at 30° C. for 30 min. Compounds were added to a final assay volume of 100 μl and incubated for 30 min at 30° C. Using the cAMP-Nano-TRF detection kit the assay (Roche Diagnostics) was stopped by the addition of 50 μl lysis reagent (Tris, NaCl, 1.5% Triton X100, 2.5% NP40, 10% NaN3) and 50 μl detection solutions (20 μM mAb Alexa700-cAMP 1:1, and 48 μM Ruthenium-2-AHA-cAMP) and shaken for 2 h at room temperature. The time-resolved energy transfer is measured by a TRF reader (Evotec Technologies GmbH), equipped with a ND:YAG laser as excitation source. The plate is measured twice with the excitation at 355 nm and at the emission with a delay of 100 ns and a gate of 100 ns, total exposure time 10 s at 730 (bandwidth 30 nm) or 645 nm (bandwidth 75 nm), respectively. The FRET signal is calculated as follows: FRET=T730-Alexa730-P(T645-B645) with P=Ru730-B730/Ru645-B645, where T730 is the test well measured at 730 nM, T645 is the test well measured at 645 nm, B730 and B645 are the buffer controls at 730 nm and 645 nm, respectively. cAMP content is determined from the function of a standard curve spanning from 10 μM to 0.13 nM cAMP.
(§2) EC50 values were determined using Activity Base analysis (ID Business Solution, Limited). The EC50 values for a wide range of cannabinoid agonists generated from this assay were in agreement with the values published in the scientific literature.

[2] = target: T2, human CB1 receptors (Homo sapiens, UniProt P21554); assay: functional cAMP assay, CHO cells expressing human CB1; assay type: cell-based
T2 construct: expressed in transfected cells; host or cells: CHO cells
T2 sequence (P21554 whole entry): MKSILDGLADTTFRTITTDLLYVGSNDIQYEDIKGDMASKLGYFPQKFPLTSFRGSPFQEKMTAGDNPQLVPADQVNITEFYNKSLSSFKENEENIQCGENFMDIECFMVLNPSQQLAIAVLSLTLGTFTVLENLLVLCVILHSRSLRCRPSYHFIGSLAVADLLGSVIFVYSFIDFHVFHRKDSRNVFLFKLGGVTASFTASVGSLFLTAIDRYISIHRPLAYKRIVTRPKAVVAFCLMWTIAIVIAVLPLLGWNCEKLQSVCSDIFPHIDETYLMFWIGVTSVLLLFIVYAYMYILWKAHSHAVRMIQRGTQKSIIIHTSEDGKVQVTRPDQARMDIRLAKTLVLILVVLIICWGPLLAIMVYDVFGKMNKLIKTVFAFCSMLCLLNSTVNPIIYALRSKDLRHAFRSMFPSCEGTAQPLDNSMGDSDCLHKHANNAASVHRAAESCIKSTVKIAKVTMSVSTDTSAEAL
Procedure: as §1, §2

[3] = functional cAMP assay, CHO cells expressing human CB2, read-out: Human CB2 EC50

T1 sequence (P34972 whole entry): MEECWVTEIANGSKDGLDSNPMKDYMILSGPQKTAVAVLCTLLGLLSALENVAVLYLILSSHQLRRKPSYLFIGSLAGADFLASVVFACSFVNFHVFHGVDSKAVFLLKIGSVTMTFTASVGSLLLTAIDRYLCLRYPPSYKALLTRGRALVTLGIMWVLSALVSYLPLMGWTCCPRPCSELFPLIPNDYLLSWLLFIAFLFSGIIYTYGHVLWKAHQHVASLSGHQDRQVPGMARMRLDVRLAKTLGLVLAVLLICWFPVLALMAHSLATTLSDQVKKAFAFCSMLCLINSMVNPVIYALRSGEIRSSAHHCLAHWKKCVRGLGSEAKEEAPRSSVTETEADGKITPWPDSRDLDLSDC

SMILES | EC50 [1] | EC50 [2] | EC50 [1, 3]
Cc1nc([C@@](C)(CS(C)(=O)=O)NC(=O)c2ccc(C3CC3)c(OCC(F)(F)F)c2)no1 [Example 29, 4-Cyclopropyl-N-[(2S)-1-(methanesulfonyl)-2-(5-methyl-1,2,4-oxadiazol-3-yl)propan-2-yl]-3-(2,2,2-trifluoroethoxy)benzamide] | 149 nM | > 10000 nM | 
CC(C)(C)c1nc(-c2ccc(C3CC3)c(OCCF)c2)no1 [Example 30, 5-tert-Butyl-3-[4-cyclopropyl-3-(2-fluoroethoxy)phenyl]-1,2,4-oxadiazole] | 38.3 nM | > 10000 nM | 
Cc1nc([C@@](C)(CC2CC2)NC(=O)c2ccc(C3CC3)c(OCC(F)F)c2)no1 [Example 31, (−)-4-Cyclopropyl-N-[1-cyclopropyl-2-(5-methyl-1,2,4-oxadiazol-3-yl)propan-2-yl]-3-(2,2-difluoroethoxy)benzamide] | 16.6 nM | > 10000 nM | 
Cc1nc([C@](C)(CC2CC2)NC(=O)c2ccc(C3CC3)c(OCC(F)F)c2)no1 [Example 32, (+)-4-Cyclopropyl-N-[1-cyclopropyl-2-(5-methyl-1,2,4-oxadiazol-3-yl)propan-2-yl]-3-(2,2-difluoroethoxy)benzamide] | 10.1 nM | > 10000 nM | 
Cc1nc([C@@](C)(CC2CC2)NC(=O)c2ccc(C3CC3)c(OCCF)c2)no1 [Example 33] | 59.4 nM | > 10000 nM | 
Cc1nc([C@](C)(CC2CC2)NC(=O)c2ccc(C3CC3)c(OCCF)c2)no1 [Example 34, (+)-4-Cyclopropyl-N-[1-cyclopropyl-2-(5-methyl-1,2,4-oxadiazol-3-yl)propan-2-yl]-3-(2-fluoroethoxy)benzamide] | 57 nM | > 10000 nM | 
C[C@](CC(N)=O)(NC(=O)c1ccc(C2CC2)c(OCC(F)(F)F)c1)C1CC1 [Example 36, (+)-N-[4-amino-2-cyclopropyl-4-oxobutan-2-yl]-4-cyclopropyl-3-(2,2,2-trifluoroethoxy)benzamide] | 33.9 nM | > 10000 nM | 
CNC(=O)[C@@H](NC(=O)c1ccc(C2CC2)c(OC(C)C)c1)C(C)(C)C [Example 37, 4-Cyclopropyl-N-[(2S)-3,3-dimethyl-1-(methylamino)-1-oxobutan-2-yl]-3-[(propan-2-yl)oxy]benzamide] | 5.33 nM | > 10000 nM | 
CNC(=O)[C@@H](NC(=O)c1ccc(C2CC2)c(OCCF)c1)C(C)(C)C [Example 39, 4-Cyclopropyl-N-[(2S)-3,3-dimethyl-1-(methylamino)-1-oxobutan-2-yl]-3-(2-fluoroethoxy)benzamide] | 11.5 nM | 1560 nM | 
NC(=O)[C@@H]1CC(F)(F)CN1C(=O)c1ccc(C2CC2)c(OCCF)c1 [Example 40, 1-[4-Cyclopropyl-3-(2-fluoroethoxy)benzoyl]-4,4-difluoro-L-prolinamide] |  | > 10000 nM | 216 nM
CNC(=O)[C@@H](NC(=O)c1ccc(C2CC2)c(OCC(F)(F)F)c1)C(C)(C)C [Example 41, 4-Cyclopropyl-N-[(2S)-3,3-dimethyl-1-(methylamino)-1-oxobutan-2-yl]-3-(2,2,2-trifluoroethoxy)benzamide] | 10 nM | 586 nM | 
NC(=O)[C@@H]1CC(F)(F)CN1C(=O)c1ccc(C2CC2)c(OCC(F)(F)F)c1 [Example 42, 1-[4-Cyclopropyl-3-(2,2,2-trifluoroethoxy)benzoyl]-4,4-difluoro-L-prolinamide] |  | > 10000 nM | 134 nM
CC(C)Oc1cc(C(=O)N[C@@](C)(CC(N)=O)C2CC2)ccc1C1CC1 [Example 43, N-[(2S)-4-Amino-2-cyclopropyl-4-oxobutan-2-yl]-4-cyclopropyl-3-[(propan-2-yl)oxy]benzamide] | 30.8 nM | > 10000 nM | 
CC(C)Oc1cc(C(=O)N[C@](C)(CC(N)=O)C2CC2)ccc1C1CC1 [Example 44, N-[(2R)-4-Amino-2-cyclopropyl-4-oxobutan-2-yl]-4-cyclopropyl-3-[(propan-2-yl)oxy]benzamide] | 2.91 nM | 1090 nM | 
C[C@](CC(N)=O)(NC(=O)c1ccc(C2CC2)c(OCCF)c1)C1CC1 [Example 45, N-[(2R)-4-Amino-2-cyclopropyl-4-oxobutan-2-yl]-4-cyclopropyl-3-(2-fluoroethoxy)benzamide] | 7.42 nM | > 10000 nM | 
CC(C)(C)c1noc(-c2ccc(C3CC3)c(N3CCC(F)(F)C3)c2)n1 [Example 47, 3-tert-Butyl-5-[4-cyclopropyl-3-(3,3-difluoropyrrolidin-1-yl)phenyl]-1,2,4-oxadiazole] | 5.33 nM | > 10000 nM | 
CC(C)Oc1cc(C(=O)N2CC(F)(F)C[C@H]2C(N)=O)ccc1C1CC1 [Example 48, 1-{4-Cyclopropyl-3-[(propan-2-yl)oxy]benzoyl}-4,4-difluoro-L-prolinamide] |  | > 10000 nM | 377 nM
Cc1nc([C@@](C)(CC2CC2)NC(=O)c2ccc(C3CC3)c(OC(C)C)c2)no1 [Example 49, 4-Cyclopropyl-N-[(2R)-1-cyclopropyl-2-(5-methyl-1,2,4-oxadiazol-3-yl)propan-2-yl]-3-[(propan-2-yl)oxy]benzamide] | 42.1 nM | > 10000 nM | 
Cc1nc([C@@](C)(CC2CC2)NC(=O)c2ccc(C3CC3)c(-c3ccc(F)nc3)c2)no1 [Example 50, 4-Cyclopropyl-N-[(2R)-1-cyclopropyl-2-(5-methyl-1,2,4-oxadiazol-3-yl)propan-2-yl]-3-(6-fluoropyridin-3-yl)benzamide] | 53.7 nM | > 10000 nM | 
C[C@@](CC(N)=O)(NC(=O)c1ccc(C2CC2)c(OCC(F)(F)F)c1)C1CC1 [Example 51, N-[(2S)-4-Amino-2-cyclopropyl-4-oxobutan-2-yl]-4-cyclopropyl-3-(2,2,2-trifluoroethoxy)benzamide] | 80.8 nM | > 10000 nM | 
C[C@](CC(N)=O)(NC(=O)c1ccc(C2CC2)c(-c2ccc(F)nc2)c1)C1CC1 [Example 52, N-[(2R)-4-Amino-2-cyclopropyl-4-oxobutan-2-yl]-4-cyclopropyl-3-(6-fluoropyridin-3-yl)benzamide] | 9.76 nM | > 10000 nM | 
C[C@@](CC(N)=O)(NC(=O)c1ccc(C2CC2)c(-c2ccc(F)nc2)c1)C1CC1 [Example 53, N-[(2S)-4-Amino-2-cyclopropyl-4-oxobutan-2-yl]-4-cyclopropyl-3-(6-fluoropyridin-3-yl)benzamide] | 184 nM | > 10000 nM | 
C[C@@](CC(N)=O)(NC(=O)c1ccc(C2CC2)c(OCCF)c1)C1CC1 [Example 54, N-[(2S)-4-Amino-2-cyclopropyl-4-oxobutan-2-yl]-4-cyclopropyl-3-(2-fluoroethoxy)benzamide] | 231 nM | > 10000 nM | 
Cn1nccc1-c1cc(C(=O)N2CC(F)(F)C[C@H]2C(N)=O)ccc1C1CC1 [Example 55, 1-[4-Cyclopropyl-3-(1-methyl-1H-pyrazol-5-yl)benzoyl]-4,4-difluoro-L-prolinamide] |  | > 10000 nM | 1910 nM
CNC(=O)[C@@H](NC(=O)c1ccc(C2CC2)c(-c2ccnn2C)c1)C(C)(C)C [Example 56, 4-Cyclopropyl-N-[(2S)-3,3-dimethyl-1-(methylamino)-1-oxobutan-2-yl]-3-(1-methyl-1H-pyrazol-5-yl)benzamide] |  | > 10000 nM | 140 nM
NC(=O)[C@@H]1CC(F)(F)CN1C(=O)c1ccc(C2CC2)c(-c2ccc(F)nc2)c1 [Example 57, 1-[4-Cyclopropyl-3-(6-fluoropyridin-3-yl)benzoyl]-4,4-difluoro-L-prolinamide] |  | > 10000 nM | 274 nM
CNC(=O)[C@@H](NC(=O)c1ccc(C2CC2)c(-c2ccc(F)nc2)c1)C(C)(C)C [Example 58, 4-Cyclopropyl-N-[(2S)-3,3-dimethyl-1-(methylamino)-1-oxobutan-2-yl]-3-(6-fluoropyridin-3-yl)benzamide] | 11.8 nM | 388 nM | 
Cc1nc([C@](C)(CC2CC2)NC(=O)c2ccc(C3CC3)c(-c3ccnn3C)c2)no1 [Example 59, 4-Cyclopropyl-N-[(2S)-1-cyclopropyl-2-(5-methyl-1,2,4-oxadiazol-3-yl)propan-2-yl]-3-(1-methyl-1H-pyrazol-5-yl)benzamide] |  | > 10000 nM | 282 nM
Cc1nc([C@](C)(CC2CC2)NC(=O)c2ccc(C3CC3)c(-c3ccc(F)nc3)c2)no1 [Example 60, 4-Cyclopropyl-N-[(2S)-1-cyclopropyl-2-(5-methyl-1,2,4-oxadiazol-3-yl)propan-2-yl]-3-(6-fluoropyridin-3-yl)benzamide] | 98.4 nM | > 10000 nM | 
